Test results published in ChEMBL document CHEMBL1153983, “Anti-HBV agents. Part 2: synthesis and in vitro anti-hepatitis B virus activities of alisol A derivatives” (Bioorg Med Chem Lett, 2009).

How the values were obtained:
[1] = Cytotoxicity against human HepG2(2.2.15) cells; assay type: cell-based
Hepatitis B virus [2] = assay: Antiviral activity against HBV assessed as inhibition of viral surface antigen secretion; assay type: functional, organism-based
Hepatitis B virus [3] = assay: Antiviral activity against HBV assessed as inhibition of viral early antigen secretion; assay type: functional, organism-based

C[C@H](C[C@H](OC(=O)CCOc1ccccc1)[C@@H](OC(=O)CCOc1ccccc1)C(C)(C)O)C1=C2C[C@H](OC(=O)CCOc3ccccc3)[C@H]3[C@@]4(C)CCC(=O)C(C)(C)[C@@H]4CC[C@]3(C)[C@@]2(C)CC1
CC50 [1]: > 950 µM
IC50 (Hepatitis B virus [2]): > 950 µM
IC50 (Hepatitis B virus [3]): > 950 µM

C[C@H](C[C@H](OC(=O)CCC1CCCCC1)[C@@H](OC(=O)CCC1CCCCC1)C(C)(C)O)C1=C2C[C@H](OC(=O)CCC3CCCCC3)[C@H]3[C@@]4(C)CCC(=O)C(C)(C)[C@@H]4CC[C@]3(C)[C@@]2(C)CC1
CC50 [1]: > 810 µM
IC50 (Hepatitis B virus [2]): > 810 µM
IC50 (Hepatitis B virus [3]): > 810 µM

C[C@H](C[C@H](OC(=O)C1CCCC1)[C@@H](OC(=O)C1CCCC1)C(C)(C)O)C1=C2C[C@H](OC(=O)C3CCCC3)[C@H]3[C@@]4(C)CCC(=O)C(C)(C)[C@@H]4CC[C@]3(C)[C@@]2(C)CC1
CC50 [1]: > 1100 µM
IC50 (Hepatitis B virus [2]): > 1100 µM
IC50 (Hepatitis B virus [3]): > 1100 µM

C[C@H](C[C@H](OC(=O)C1CC1)[C@@H](OC(=O)C1CC1)C(C)(C)O)C1=C2C[C@H](OC(=O)C3CC3)[C@H]3[C@@]4(C)CCC(=O)C(C)(C)[C@@H]4CC[C@]3(C)[C@@]2(C)CC1
CC50 [1]: > 1000 µM
IC50 (Hepatitis B virus [2]): > 1000 µM
IC50 (Hepatitis B virus [3]): > 1000 µM

CC(C)CC(=O)O[C@@H](C[C@@H](C)C1=C2C[C@H](OC(=O)CC(C)C)[C@H]3[C@@]4(C)CCC(=O)C(C)(C)[C@@H]4CC[C@]3(C)[C@@]2(C)CC1)[C@@H](OC(=O)CC(C)C)C(C)(C)O
CC50 [1]: > 1200 µM
IC50 (Hepatitis B virus [2]): > 1200 µM
IC50 (Hepatitis B virus [3]): > 1200 µM

CC(C)CCC(=O)O[C@@H](C[C@@H](C)C1=C2C[C@H](OC(=O)CCC(C)C)[C@H]3[C@@]4(C)CCC(=O)C(C)(C)[C@@H]4CC[C@]3(C)[C@@]2(C)CC1)[C@@H](OC(=O)CCC(C)C)C(C)(C)O
CC50 [1]: > 900 µM
IC50 (Hepatitis B virus [2]): > 900 µM
IC50 (Hepatitis B virus [3]): > 900 µM

C/C=C/C(=O)O[C@@H](C[C@@H](C)C1=C2C[C@H](OC(=O)/C=C/C)[C@H]3[C@@]4(C)CCC(=O)C(C)(C)[C@@H]4CC[C@]3(C)[C@@]2(C)CC1)[C@@H](OC(=O)/C=C/C)C(C)(C)O
CC50 [1]: > 850 µM
IC50 (Hepatitis B virus [2]): > 850 µM
IC50 (Hepatitis B virus [3]): > 850 µM

C[C@H](C[C@H](OC(=O)c1ccc(Cl)cc1)[C@@H](OC(=O)c1ccc(Cl)cc1)C(C)(C)O)C1=C2C[C@H](OC(=O)c3ccc(Cl)cc3)[C@H]3[C@@]4(C)CCC(=O)C(C)(C)[C@@H]4CC[C@]3(C)[C@@]2(C)CC1
CC50 [1]: > 900 µM
IC50 (Hepatitis B virus [2]): > 900 µM
IC50 (Hepatitis B virus [3]): > 900 µM

CCC(CC)C(=O)O[C@@H](C[C@@H](C)C1=C2C[C@H](OC(=O)C(CC)CC)[C@H]3[C@@]4(C)CCC(=O)C(C)(C)[C@@H]4CC[C@]3(C)[C@@]2(C)CC1)[C@@H](OC(=O)C(CC)CC)C(C)(C)O
CC50 [1]: > 1100 µM
IC50 (Hepatitis B virus [2]): > 1100 µM
IC50 (Hepatitis B virus [3]): > 1100 µM

C/C=C/C=C/C(=O)O[C@@H](C[C@@H](C)C1=C2C[C@H](OC(=O)/C=C/C=C/C)[C@H]3[C@@]4(C)CCC(=O)C(C)(C)[C@@H]4CC[C@]3(C)[C@@]2(C)CC1)[C@@H](OC(=O)/C=C/C=C/C)C(C)(C)O
CC50 [1]: > 900 µM
IC50 (Hepatitis B virus [2]): > 900 µM
IC50 (Hepatitis B virus [3]): > 900 µM

CCCCC(=O)O[C@@H](C[C@@H](C)C1=C2C[C@H](OC(=O)CCCC)[C@H]3[C@@]4(C)CCC(=O)C(C)(C)[C@@H]4CC[C@]3(C)[C@@]2(C)CC1)[C@@H](OC(=O)CCCC)C(C)(C)O
CC50 [1]: > 1300 µM
IC50 (Hepatitis B virus [2]): > 1300 µM
IC50 (Hepatitis B virus [3]): > 1300 µM

C[C@H](C[C@H](OC(=O)c1ccccc1I)[C@@H](OC(=O)c1ccccc1I)C(C)(C)O)C1=C2C[C@H](OC(=O)c3ccccc3I)[C@H]3[C@@]4(C)CCC(=O)C(C)(C)[C@@H]4CC[C@]3(C)[C@@]2(C)CC1
CC50 [1]: > 1500 µM
IC50 (Hepatitis B virus [2]): > 1500 µM
IC50 (Hepatitis B virus [3]): > 1500 µM

C[C@H](C[C@H](OC(=O)COc1ccccc1)[C@@H](OC(=O)COc1ccccc1)C(C)(C)O)C1=C2C[C@H](OC(=O)COc3ccccc3)[C@H]3[C@@]4(C)CCC(=O)C(C)(C)[C@@H]4CC[C@]3(C)[C@@]2(C)CC1
CC50 [1]: > 1300 µM
IC50 (Hepatitis B virus [2]): > 1300 µM
IC50 (Hepatitis B virus [3]): > 1300 µM
